The values that follow are results of earlier work, collected in patent US20240358731A1, “SUMO PATHWAY AS AN OXYGEN SENSOR RELEVANT TO THE PATHOPHYSIOLOGY OF PULMONARY ARTERY HYPERTENSION AND CARDIAC ARRHYTHMIA” (Northeastern University, priority 2023, published 2024).

One series deals with SENP1 mRNA. The settings on record: cited from earlier work.
A further series concerns pfSENP1. The settings on record: cited from earlier work.

In the case of `CC(C)[C@]12O[C@H]1[C@@H]1O[C@]13[C@]1(O[C@H]1C[C@H]1C4=C(CC[C@@]13C)C(=O)OC4)[C@@H]2O` [Triptolide], in the series on SENP1 mRNA, the “SENP1 mRNA levels” value was “decreased SENP1 mRNA levels”.

In the case of `O=C(O)CN(NC(=O)c1ccc(CNC(=O)c2cccc(C(=O)O)c2)cc1)C(=O)[C@H]1O[C@@H]1C(=O)N(Cc1cccc2ccccc12)Cc1cccc2ccccc12` [JCP-666], the pfSENP1 inhibition result in the series on pfSENP1 was “inhibitor”.
